Where “and” joins values, the source holds several entries; their conditions need not be identical. Equal values may be shown once. Toxic doses and inconclusive results are not listed. Square brackets hold non-standard residues; d marks the D form. Peptide text beside a SMILES is read from it. * marks the point of attachment. ξ: configuration not given here. Cbz = O=C(OCc1ccccc1)*; ξI = CCC(C)C(N)C(=O)O
Tested on: P388 leukemia ip, CD2F1 mice, survival T/C
Experiment: NCI In Vivo Anticancer Drug Screen. Data for tumor model P388 Leukemia (intraperitoneal) in CD2F1 (CDF1) mice
Details: endpoint: median survival time, higher = longer survival
How it was run: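 Mice carrying the transplanted tumor received test compound or vehicle. Survival was recorded in each group, and the value is the treated-group measurement divided by that of the vehicle-treated control group.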

[1] = dose: 100.0 mg/kg/injection, schedule: Q04DX002 (ip), vehicle: saline with Tween-80
[2] = dose: 50.0 mg/kg/injection, schedule: Q01DX009 (ip), vehicle: Klucel (hydroxypropylcellulose) (HPC)
[3] = dose: 100.0 mg/kg/injection, schedule: Q01DX009 (ip), vehicle: Klucel (hydroxypropylcellulose) (HPC)
[4] = dose: 200.0 mg/kg/injection, schedule: Q01DX009 (ip), vehicle: Klucel (hydroxypropylcellulose) (HPC)
[5] = dose: 50.0 mg/kg/injection, schedule: Q01DX009 (ip), vehicle: saline with Tween-80
[6] = dose: 100.0 mg/kg/injection, schedule: Q01DX009 (ip), vehicle: saline with Tween-80
[7] = dose: 200.0 mg/kg/injection, schedule: Q01DX009 (ip), vehicle: saline with Tween-80
[8] = dose: 60.0 mg/kg/injection, schedule: Q01DX005 (ip), vehicle: Klucel (hydroxypropylcellulose) (HPC)
[9] = dose: 120.0 mg/kg/injection, schedule: Q01DX005 (ip), vehicle: Klucel (hydroxypropylcellulose) (HPC)
[10] = dose: 240.0 mg/kg/injection, schedule: Q01DX005 (ip), vehicle: Klucel (hydroxypropylcellulose) (HPC)
[11] = dose: 50.0 mg/kg/injection, schedule: Q01DX009 (ip), vehicle: saline
[12] = dose: 100.0 mg/kg/injection, schedule: Q01DX009 (ip), vehicle: saline
[13] = dose: 200.0 mg/kg/injection, schedule: Q01DX009 (ip), vehicle: saline
[14] = dose: 50.0 mg/kg/injection, schedule: Q01DX005 (ip), vehicle: saline with Tween-80
[15] = dose: 100.0 mg/kg/injection, schedule: Q01DX005 (ip), vehicle: saline with Tween-80
[16] = dose: 200.0 mg/kg/injection, schedule: Q01DX005 (ip), vehicle: saline with Tween-80
[17] = dose: 100.0 mg/kg/injection, schedule: Q04DX003 (ip), vehicle: saline with Tween-80
[18] = dose: 50.0 mg/kg/injection, schedule: Q01DX005 (ip), vehicle: Klucel (hydroxypropylcellulose) (HPC)
[19] = dose: 100.0 mg/kg/injection, schedule: Q01DX005 (ip), vehicle: Klucel (hydroxypropylcellulose) (HPC)
[20] = dose: 200.0 mg/kg/injection, schedule: Q01DX005 (ip), vehicle: Klucel (hydroxypropylcellulose) (HPC)

## CC(C)C1CCC(C)C1C(N)=O (stereo not drawn)
[1]
  T/C: 103 % of control
dose: 200.0 mg/kg/injection, schedule: Q04DX002 (ip), vehicle: saline with Tween-80
  T/C: 99 % of control
dose: 400.0 mg/kg/injection, schedule: Q04DX002 (ip), vehicle: saline with Tween-80
  T/C: 99 % of control

## Nc1ccc2ccccc2c1[N+](=O)[O-]
[2]
  T/C: 105 % of control
[3]
  T/C: 102 % of control
[4]
  T/C: 113 % of control

## CCOC(=O)CSc1ccc(C)cc1C(O)(C(F)(F)F)C(F)(F)F
dose: 12.5 mg/kg/injection, schedule: Q01DX009 (ip), vehicle: saline with Tween-80
  T/C: 98 % of control
dose: 25.0 mg/kg/injection, schedule: Q01DX009 (ip), vehicle: saline with Tween-80
  T/C: 99 % of control
[5]
  T/C: 108 % of control
[6]
  T/C: 99 % of control
[7]
  T/C: 101 % of control

## O=C1CCCCCCCCCC/C1=N/O
[5]
  T/C: 99 % of control
[6]
  T/C: 89 % of control
[7]
  T/C: 96 % of control

## CC1(C)OCC(C2OC3OC(C)(C)OC3C2N=O)O1 (stereo not drawn)
dose: 94.5 mg/kg/injection, schedule: Q04DX002 (ip), vehicle: Klucel (hydroxypropylcellulose) (HPC)
  T/C: 103 % of control
dose: 189.0 mg/kg/injection, schedule: Q04DX002 (ip), vehicle: Klucel (hydroxypropylcellulose) (HPC)
  T/C: 96 % of control
dose: 378.0 mg/kg/injection, schedule: Q04DX002 (ip), vehicle: Klucel (hydroxypropylcellulose) (HPC)
  T/C: 90 % of control

## O=C1NC(=O)C(CCC[n+]2ccccc2)(c2ccccc2)C(=O)N1
[5]
  T/C: 107 % of control
[6]
  T/C: 107 % of control

## CC1(C)CC(C#N)CC(C)(C)N1O
dose: 100.0 mg/kg/injection, schedule: Q04DX003 (ip), vehicle: Klucel (hydroxypropylcellulose) (HPC)
  T/C: 100 % of control

## COC1(OC)C2(Cl)CC3C4(C)OC(Cl)(C31Cl)C42Cl (stereo not drawn)
[8]
  T/C: 105 % of control
[9]
  T/C: 101 % of control
[10]
  T/C: 100 % of control

## COC1=C(C)C(=O)c2[nH]ccc2C1=O
[1]
  T/C: 102 % of control

## CCOC(=O)c1cnc2c(c(Br)cc3c4cc(Br)ccc4[nH]c32)c1Cl
dose: 6.25 mg/kg/injection, schedule: Q01DX009 (ip), vehicle: saline
  T/C: 112 % of control
dose: 12.5 mg/kg/injection, schedule: Q01DX009 (ip), vehicle: saline
  T/C: 107 % of control
dose: 25.0 mg/kg/injection, schedule: Q01DX009 (ip), vehicle: saline
  T/C: 111 % of control
[11]
  T/C: 97 % of control
[12]
  T/C: 91 % of control
[13]
  T/C: 88 % of control

## CCC(C)C(NC(=O)CNC(=O)CNC(=O)OCc1ccccc1)C(=O)O (stereo not drawn) (Cbz-Gly-Gly-[ξI]-OH)
[14]
  T/C: 103 % of control
[15]
  T/C: 100 % of control
[16]
  T/C: 102 % of control

## BrC=C(Br)Br
[14]
  T/C: 104 % of control
[15]
  T/C: 100 % of control
[16]
  T/C: 95 % of control

## COc1ccc(N=Nc2c(C)nn(C(=O)c3ccncc3)c2C)cc1
[2]
  T/C: 108 % of control
[3]
  T/C: 99 % of control
[4]
  T/C: 101 % of control

## O=C(O)c1cc(Br)c2ccccc2c1O
dose: 25.0 mg/kg/injection, schedule: Q04DX003 (ip), vehicle: saline with Tween-80
  T/C: 100 % of control
dose: 50.0 mg/kg/injection, schedule: Q04DX003 (ip), vehicle: saline with Tween-80
  T/C: 100 % of control
[17]
  T/C: 100 % of control

## COc1ccc(SCC(=O)c2ccc([N+](=O)[O-])o2)cc1
dose: 50.0 mg/kg/injection, schedule: Q01DX009 (ip), vehicle: suspension in saline
  T/C: 114 % of control
dose: 100.0 mg/kg/injection, schedule: Q01DX009 (ip), vehicle: suspension in saline
  T/C: 104 % of control

## CCOC(=O)Nc1nncs1
dose: 12.5 mg/kg/injection, schedule: Q01DX009 (ip), vehicle: distilled water + Tween-80
  T/C: 103 % of control
dose: 25.0 mg/kg/injection, schedule: Q01DX009 (ip), vehicle: distilled water + Tween-80
  T/C: 105 % of control and 108 % of control
dose: 50.0 mg/kg/injection, schedule: Q01DX009 (ip), vehicle: distilled water + Tween-80
  T/C: 108 % of control
dose: 100.0 mg/kg/injection, schedule: Q01DX009 (ip), vehicle: distilled water + Tween-80
  T/C: 100 % of control
dose: 200.0 mg/kg/injection, schedule: Q01DX009 (ip), vehicle: distilled water + Tween-80
  T/C: 151 % of control and 168 % of control
dose: 400.0 mg/kg/injection, schedule: Q01DX009 (ip), vehicle: distilled water + Tween-80
  T/C: 108 % of control

## Cc1cc(=O)[nH]c(Nc2ccccc2)n1
[17]
  T/C: 100 % of control
dose: 200.0 mg/kg/injection, schedule: Q04DX003 (ip), vehicle: saline with Tween-80
  T/C: 90 % of control
dose: 400.0 mg/kg/injection, schedule: Q04DX003 (ip), vehicle: saline with Tween-80
  T/C: 100 % of control

## O=c1[nH]c2ccccc2c(Oc2ccccc2)c1I
[8]
  T/C: 89 % of control
[9]
  T/C: 92 % of control
[10]
  T/C: 101 % of control

## COC(CCC1CO1)OC (stereo not drawn)
[5]
  T/C: 100 % of control
[6]
  T/C: 96 % of control
[7]
  T/C: 99 % of control

## CC1(C)CC(Nc2ccccc2)=CC(=Nc2ccccc2)S1
[8]
  T/C: 110 % of control
[9]
  T/C: 92 % of control
[10]
  T/C: 89 % of control

## Cc1nc2cc3ccccc3cc2nc1C
[18]
  T/C: 100 % of control
[19]
  T/C: 99 % of control
[20]
  T/C: 100 % of control

## CCOC(=O)COc1cc2c(cc1Cc1ccc(OC)cc1)OCO2
[14]
  T/C: 97 % of control
[15]
  T/C: 92 % of control

## O=CNC(Cc1ccccc1)c1ccc(OCc2ccccc2)cc1 (stereo not drawn)
[18]
  T/C: 98 % of control
[19]
  T/C: 92 % of control
[20]
  T/C: 87 % of control

## Fc1cccc(Cl)c1C(Nc1ncccn1)Nc1ncccn1
[8]
  T/C: 100 % of control
[9]
  T/C: 94 % of control
[10]
  T/C: 88 % of control

## CC(C)(C)c1cc(/C=C2/OC(=O)c3ccccc32)cc(C(C)(C)C)c1O
dose: 100.0 mg/kg/injection, schedule: Q04DX002 (ip), vehicle: saline
  T/C: 99 % of control
dose: 200.0 mg/kg/injection, schedule: Q04DX002 (ip), vehicle: saline
  T/C: 100 % of control
dose: 400.0 mg/kg/injection, schedule: Q04DX002 (ip), vehicle: saline
  T/C: 96 % of control

## CSc1ncc(C#N)c2nc(-c3ccccc3)nn12
[14]
  T/C: 97 % of control
[15]
  T/C: 94 % of control
[16]
  T/C: 88 % of control

## Cc1ccc(NC2OC(CO)C(O)C2O)c([N+](=O)[O-])c1 (stereo not drawn)
dose: 100.0 mg/kg/injection, schedule: Q01DX001 (ip), vehicle: saline
  T/C: 108 % of control
dose: 200.0 mg/kg/injection, schedule: Q01DX001 (ip), vehicle: saline
  T/C: 97 % of control
dose: 400.0 mg/kg/injection, schedule: Q01DX001 (ip), vehicle: saline
  T/C: 99 % of control

## CCCCCCOC(=O)c1ccccc1OP(=O)(N(C)C)N(C)C
dose: 50.0 mg/kg/injection, schedule: Q01DX005 (ip), vehicle: saline
  T/C: 98 % of control
dose: 100.0 mg/kg/injection, schedule: Q01DX005 (ip), vehicle: saline
  T/C: 101 % of control

## NCC(=O)NCC(=O)NC(Cc1ccc(O)cc1)C(=O)O (stereo not drawn)
[14]
  T/C: 101 % of control
[15]
  T/C: 96 % of control
[16]
  T/C: 104 % of control

## CCOC(=O)C(Cc1ccc(O)c(C#N)c1)NC(C)=O (stereo not drawn)
[14]
  T/C: 97 % of control
[15]
  T/C: 97 % of control
[16]
  T/C: 95 % of control

## CS(=O)(=O)O
[11]
  T/C: 100 % of control
[12]
  T/C: 110 % of control
[13]
  T/C: 108 % of control

## COc1cc2ccncc2cc1Oc1c(OC)c(OC)cc2ccncc12
[8]
  T/C: 100 % of control
[9]
  T/C: 90 % of control
[10]
  T/C: 100 % of control

## c1ccc(N=C2c3ccccc3NC2(c2ccccc2)c2ccccc2)cc1
[5]
  T/C: 101 % of control
[6]
  T/C: 93 % of control

## CC([NH-])C[NH-].O=S(=O)(O)O.[Pt+2] (stereo not drawn)
dose: 3.12 mg/kg/injection, schedule: Q04DX002 (ip), vehicle: saline
  T/C: 154 % of control
dose: 12.5 mg/kg/injection, schedule: Q04DX002 (ip), vehicle: saline
  T/C: 90 % of control and 118 % of control

## C/C(=N\NC(=S)N1CCN(C2CCCCCC2)CC1)c1ccccn1
dose: 1.57 mg/kg/injection, schedule: Q01DX005 (ip), vehicle: saline with Tween-80
  T/C: 96 % of control
dose: 3.13 mg/kg/injection, schedule: Q01DX005 (ip), vehicle: saline with Tween-80
  T/C: 100 % of control
dose: 6.25 mg/kg/injection, schedule: Q01DX005 (ip), vehicle: saline with Tween-80
  T/C: 114 % of control and 120 % of control

— PubChem BioAssay AID330 (DTP/NCI, 2004)
